Measurements from article PMC3032679 (Journal of Translational Medicine, 2011).
Entries after “also recorded” stand apart in the source; their conditions may differ. Peptide text beside a SMILES is read from it.

Columns and labels:
HEK293T cells = test: Cell viability assay, HEK293T; assay type: cell-based, human; settings: Antp-TPR; normal cells HEK293T; mean of three independent experiments each in triplicate; 72 h (Figure 2)
From the text: (§1) The following human tumor and normal cell lines were obtained from the American Type Culture Collection (ATCC): human breast cancer (BT-20, T47D, and MDA-MB-231), lung cancer (A549), kidney cancer (Caki-1), prostate cancer (LNCap), gastric cancer (OE19) and lung fibroblast (MRC5). Human pancreatic cancer cell line (BXPC3) was purchased from the European Collection of Cell Culture (ECACC). Human embryonic kidney cell line (HEK293T) and human normal pancreatic epithelial (PE) cell line ACBRI 515 were purchased from RIKEN cell bank and DS Pharma Biomedical, respectively. Cells were cultured in RPMI-1640 (BT-20, MDA-MB-231, T47D, LNCap, OE19, and BXPC3), MEM (MRC5 and A549), DMEM (HEK293T and Caki-1) or CSC (PE) containing 10% fetal bovine serum (FBS), 100 μg/ml penicillin, and 100 μg/ml streptomycin.
(§2) Cells were seeded on to 96-well plates at 2000-3000 cells/well and incubated with the test peptide. After incubation, an assay for cell viability was carried out using Living Cell Count Reagent SF (Nacalai Tesque) according to the manufacturer's protocol. Absorbance was measured at a wavelength of 450 nm using a 96-well microplate reader (GE Healthcare).
(§3) Data represent the mean ± SD from experiments performed in triplicate.

[1] = system: normal human cell lines (HEK293T, MRC5, and PE); test: Cell viability assay, normal cell lines (panel); settings: identical concentrations, 72 h
From the text: as §1, §2, §3

liver, kidney, and lung = test: Histologic examination of organs (H & E); assay type: in vivo, athymic nude mice; settings: 5 mg/kg i.v., nine times, versus saline
From the text: (A) BXPC3 pancreatic cancer cells were implanted subcutaneously into athymic nude mice. […] Each group had six animals (n = 6), and experiments were repeated twice. Data are expressed as mean ± SD. […] Scale bars, 25 μm. (C) Histologic examination after treatment with Antp-TPR hybrid peptide.

OE19 cells = settings: Antp-TPR; gastric cancer OE19; mean of three independent experiments each in triplicate; 72 h (Figure 2)
From the text: as §1, §2, §3

PE cells = test: Cell viability assay, PE; assay type: cell-based, human; settings: Antp-TPR; normal cells PE; mean of three independent experiments each in triplicate; 72 h (Figure 2)
From the text: as §1, §2, §3

BT20 cells = test: Cell viability assay, BT20; assay type: cell-based, human; settings: Antp-TPR; breast cancer BT20; mean of three independent experiments each in triplicate; 72 h (Figure 2)
From the text: as §1, §2, §3

LNcap cells = settings: Antp-TPR; prostate cancer LNcap; mean of three independent experiments each in triplicate; 72 h (Figure 2)
From the text: as §1, §2, §3

MDA-MB-231 cells = test: Cell viability assay, MDA-MB-231; assay type: cell-based, human; settings: Antp-TPR; breast cancer MDA-MB-231; mean of three independent experiments each in triplicate; 72 h (Figure 2)
From the text: as §1, §2, §3

MRC5 cells = settings: Antp-TPR; normal cells MRC5; mean of three independent experiments each in triplicate; 72 h (Figure 2)
From the text: as §1, §2, §3

A549 cells = test: Cell viability assay, A549; assay type: cell-based, human; settings: Antp-TPR; lung cancer A549; mean of three independent experiments each in triplicate; 72 h (Figure 2)
From the text: as §1, §2, §3

BXPC3 cells = test: Cell viability assay, BXPC3; assay type: cell-based, human; settings: Antp-TPR; pancreatic cancer BXPC3; mean of three independent experiments each in triplicate; 72 h (Figure 2)
From the text: as §1, §2, §3

Caki-1 cells = settings: Antp-TPR; renal cancer Caki-1; mean of three independent experiments each in triplicate; 72 h (Figure 2)
From the text: as §1, §2, §3

[2] = Observation of behavior and appetite after treatment; assay type: in vivo; settings: mice
[3] = system: normal and cancer cell lines; test: Cell viability assay, normal and cancer cell lines (panel); assay type: cell-based, human; settings: 72 h
From the text: as §1, §2, §3

[4] = system: interaction of Hsp90 with the TPR2A domain of Hop; test: SPR competition: Hsp90 binding to TPR2A domain of Hop; assay type: biochemical, human; settings: Hsp90 1 μM over immobilized TPR2A (5000 RU), peptide 1.4, 14, 140, 280, 700 μM and 1 mM
Experimental: To confirm the presence of purified protein, SDS/PAGE was performed according to the method of Laemmli.
SPR experiments were performed with the Biacore biosensor 3000 system as described previously. Human recombinant Hop, FKBP5, PP5, and purified TPR2A domain of Hop proteins were immobilized on the surface of CM5 sensor chips via N-hydroxysuccinimide and N-ethyl-N'-(dimethylaminopropyl)carbodiimide activation chemistry according to the manufacturer's instructions. Biotin-conjugated TPR peptide (biotin-TPR) was immobilized on the surface of streptavidin (SA) sensor chip. […] HBS-EP buffer (0.01 M Hepes/0.15 M NaCl/0.005% Tween 20/3 mM EDTA, pH 7.4) was used as a running buffer during the assay to inhibit non-specific binding. Data analysis was performed using BIA evaluation version 4.1 software. […] SPR signals obtained in the absence of competing peptides were used as a reference (100% binding) to normalize values obtained in the presence of peptides.
The SPR signal in the absence of competing peptides was used as a reference (100% binding).

With `CC[C@H](C)[C@H](NC(=O)[C@H](CCCNC(=N)N)NC(=O)[C@H](C)NC(=O)[C@H](Cc1ccc(O)cc1)NC(=O)[C@H](C)NC(=O)[C@H](CCCCN)NC(=O)[C@H](CCCCN)NC(=O)[C@H](CCCCN)NC(=O)[C@H](Cc1c[nH]c2ccccc12)NC(=O)[C@H](CCCCN)NC(=O)[C@H](CCSC)NC(=O)[C@H](CCCNC(=N)N)NC(=O)[C@H](CCCNC(=N)N)NC(=O)[C@H](CC(N)=O)NC(=O)[C@H](CCC(N)=O)NC(=O)[C@H](Cc1ccccc1)NC(=O)[C@H](Cc1c[nH]c2ccccc12)NC(=O)[C@@H](NC(=O)[C@H](CCCCN)NC(=O)[C@@H](NC(=O)[C@H](CCC(N)=O)NC(=O)[C@@H](N)CCCNC(=N)N)[C@@H](C)CC)[C@@H](C)CC)C(=O)NCC(=O)N[C@@H](CC(N)=O)C(=O)N[C@@H](CO)C(=O)N[C@@H](Cc1ccc(O)cc1)C(=O)N[C@@H](Cc1ccccc1)C(=O)N[C@@H](CCCCN)C(=O)O` [Antp-TPR] (H-RQIKIWFQNRRMKWKKKAYARIGNSYFK-OH) the IC50 (HEK293T cells) was > 100 µM, the “effect on viability of normal cells” value [1] was “did not apparently reduce the viability; also recorded: less cytotoxic to normal cells” and the “histologic examination of liver, kidney, and lung” value (liver, kidney, and lung) was “equally unremarkable in the saline or hybrid peptide-treated mice; also recorded: did not cause serious damages to the main organs (liver, kidney, and lung) and normal tissues”. For the same compound, the IC50 (OE19 cells) was 33.4 µM, the IC50 (PE cells) was > 100 µM and the IC50 (BT20 cells) was 37.4 µM. The IC50 (LNcap cells) was 56.7 µM, the IC50 (MDA-MB-231 cells) was 56.9 µM and the IC50 (MRC5 cells) was > 100 µM. For the same compound, the IC50 (A549 cells) was 65.9 µM, the IC50 (BXPC3 cells) was 44.8 µM and the IC50 (Caki-1 cells) was 47.9 µM. For the same compound, the “abnormal behaviors or losing of appetite” value [2] was “any abnormal behaviors or losing of appetite after the treatment with this peptide was not also observed”.
For `CC[C@H](C)[C@H](NC(=O)[C@H](CCCNC(=N)N)NC(=O)[C@H](C)NC(=O)[C@H](Cc1ccc(O)cc1)NC(=O)[C@H](C)NC(=O)[C@@H](N)CCCCN)C(=O)NCC(=O)N[C@@H](CC(N)=O)C(=O)N[C@@H](CO)C(=O)N[C@@H](Cc1ccc(O)cc1)C(=O)N[C@@H](Cc1ccccc1)C(=O)N[C@@H](CCCCN)C(=O)O` [TPR], the “effect on viability / cytotoxicity” value [3] was “no effect on normal or cancer cells; also recorded: no cytotoxicity”.
In the case of KAYAAAGNSYFK [TPR mutant 1], the “competition for interaction of Hsp90 with TPR2A domain of Hop” value (“competition for interaction of Hsp90” below) [4] is reported as “did not demonstrate any protein interaction when analyzed at up to millimolar concentrations”.
With “KAYARIGNSGGG [TPR mutant 2, TPR with last three amino acids, Tyr-Phe-Lys, replaced with three Gly residues]” the “competition for interaction of Hsp90” value [4] was “did not demonstrate any protein interaction when analyzed at up to millimolar concentrations”.
In the case of “RKFSAAIGYNKY [TPR scramble, scramble peptide of TPR]”, the “competition for interaction of Hsp90” value [4] is reported as “did not demonstrate any protein interaction when analyzed at up to millimolar concentrations”.
In the case of “RQIKIWFQNRRMKWKKKAYAAAGNSYFK [Antp-TPR mutant 1]”, the selective antitumor activity [3] is reported as “did not show selective antitumor activities”.
For “RQIKIWFQNRRMKWKKKAYARIGNSGGG [Antp-TPR mutant 2]”, the selective antitumor activity [3] was “did not show selective antitumor activities”.
For “RQIKIWFQNRRMKWKKRKFSAAIGYNKY [Antp-scramble, scramble peptide fused to Antennapedia helix III]”, the “effect on viability / cytotoxicity” value [3] was “no effect on these cell lines”.
